Results reported in patent publication US7700584B2 (Hangzhou Minsheng Pharmaceuticals Co., Ltd., priority 2004, dated 2010).

Key:
[1] = tested on: MCF-7 human mammary adenocarcinoma; test: In vitro inhibition rate to tumor cells (MTT), MCF-7; format: cell-based; details: 50 μg/ml
Experimental: (§1) (1) Single cell suspension was seeded into 96-well plates (×3) (the cells was diluted in the PRMI-1640 minimum medium to 3×10^4 cells/ml, […] diluted cells/well). […] The experiments were performed in quadruplicate.
(§2) (2) The medium was removed. Solutions of the anti-tumor agents (15 compounds) were prepared in a freshly prepared medium at the concentrations indicated in the following Table. […] of the solution was added into each well. Incubation was continued for 48 hours.
(§3) (3) […] of 2 mg/ml MTT was added into each well, and incubated for 4 hours.
(§4) (4) The medium was removed from the well. The microplates were swiftly turned down to throw-off the medium. […] DMSO was added into each well, and vortexed at room temperature for 10 minutes.
(§5) (5) OD value (λ=570 nm) was measured with an Enzyme-Linked Detector.
(§6) (6) The inhibition rates (IR) of cell growth were respectively calculated based on the following equation: IR(%)=[1−(average OD of the experimental group/average OD of the control group)]×100%

293 cells = test: Cell status of 293 cells treated with sample alone (herpes virus screening); details: 50 μg/ml; 293 cells without virus; 12 hrs
[2] = tested on: HL-60 human promyelocytic leukemia; test: In vitro inhibition rate to tumor cells (MTT), HL-60; format: cell-based; details: 50 μg/ml
Experimental: as §1, §2, §3, §4, §5, §6

[3] = tested on: Bel-7402 human hepatic carcinoma; test: In vitro inhibition rate to tumor cells (MTT), Bel-7402; format: cell-based; details: 50 μg/ml
Experimental: as §1, §2, §3, §4, §5, §6

[4] = tested on: LLC mouse Lewis lung carcinoma; test: In vitro inhibition rate to tumor cells (MTT), LLC; format: cell-based; details: 50 μg/ml
Experimental: as §1, §2, §3, §4, §5, §6

[5] = tested on: SMMC-7721 human hepatic carcinoma; test: In vitro inhibition rate to tumor cells (MTT), SMMC-7721; format: cell-based; details: 50 μg/ml
Experimental: as §1, §2, §3, §4, §5, §6

[6] = tested on: Hela human cervical carcinoma; test: In vitro inhibition rate to tumor cells (MTT), Hela; format: cell-based; details: 50 μg/ml
Experimental: as §1, §2, §3, §4, §5, §6

[7] = tested on: U-937 human histocytic lymphoma; test: In vitro inhibition rate to tumor cells (MTT), U-937; format: cell-based; details: 50 μg/ml
Experimental: as §1, §2, §3, §4, §5, §6

[8] = tested on: A-549 human lung adenocarcinoma; test: In vitro inhibition rate to tumor cells (MTT), A-549; format: cell-based; details: 50 μg/ml
Experimental: as §1, §2, §3, §4, §5, §6

mouse lung cancer Lewis = test: Activity against mouse grafted lung cancer Lewis; format: in vivo, Kunming mice; details: Lewis, 1 mg/kg; for Tumor weight: X ± SD, n = 10
Experimental: (§7) The experiments were performed according to “Guideline for New Drugs (Western medicines) in Pre-clinical Stages” issued by Bureau of Drug Policy & Administration of the People's Republic of China, and the relevant methods in “Methodology of Pharmaceutical Experiments”, Xu Shuyun et al. ed. 120 male Kunming mice weighting […] were allowed to grow 3 days. No abnormality was observed. The mice were routinely inoculated in oxter with mouse sarcoma S-180, and weighted 4 hrs. after inoculation. The mice were randomly divided into 12 groups, 10 mice/group. Group 1 was given 0.3 ml of physiological saline as negative control; Group 2 was given 5-FU as positive control, 0.6 mg/mouse; Group 3 was given hydroxycamptothecine as positive control, 0.02 mg/mouse. Groups 4, 5 and 6 were injected with 10% Compound 6, 0.4 ml/mouse, 0.2 ml/mouse, and 0.1 ml/mouse, respectively. Groups 7, 8 and 9 were injected with 10% Compound 8, 0.4 ml/mouse, 0.2 ml/mouse, and 0.1 ml/mouse, respectively. Groups 10, 11, and 12 were injected with 10% Compound 20, 0.4 ml/mouse, 0.2 ml/mouse, and 0.1 ml/mouse, respectively. The tested compounds were administered on the next day after inoculation, once a day on alternate days, 6 doses totally administered. On the next day after the end dose, the mice were weighed and sacrificed. After the tumor was excised, body weight and tumor weight were recorded. The tumor inhibition rate was calculated based on the following formula: [(average tumor weight of the control groups−average tumor weight of the experimental groups)/average tumor weight of the control groups]×100%. The data was processed statistically. The above experiments were repeated three times.
(§8) The experiments were identical with the experiments for activity against mouse grafted sarcoma S-180, except the following:
(1) the tumor cell line inoculated was mouse lung cancer Lewis;
(2) Compound 6, Compound 8 and Compound 21 were not tested for their activity;
(3) the mice were divided into six groups.

[9] = tested on: mouse grafted uterine cervix cancer U14; test: Activity against mouse grafted uterine cervix cancer U14; format: in vivo, Kunming mice; details: 1 mg/kg; for Tumor weight: X ± SD, n = 10
Experimental: as §7, §8
(1) the tumor cell line inoculated was mouse grafted uterine cervix cancer U14;
(2) all the mice were female.

[10] = tested on: mouse grafted sarcoma S-180; test: Activity against mouse grafted sarcoma S-180; format: in vivo, Kunming mice; details: 1 mg/kg i.v., 6 doses; for Tumor weight: X ± SD, n = 10
Experimental: (1) Experimental animals: Kunming mice weighting 18-22 g;
(2) 100 mg/ml solutions of the 3 compounds were prepared, respectively, in water for injection (1% surface surfactant was added into the solution of Compound 6). 5-FU and camptothecine, 30 mg/kg and 1 mg/kg, respectively, were used as positive controls;
3. Route of Administration: Intravenous Injection.
as §7

[11] = tested on: mouse grafted liver cancer H22; test: Activity against mouse grafted liver cancer H22; format: in vivo, Kunming mice; details: for Tumor weight: X ± SD, n = 10
Experimental: as §7
The experiments were identical with the experiments for activity against mouse grafted sarcoma S-180, except that the cell line inoculated was liver cancer H22. The experiments were repeated three times.

[12] = H22, first experiment, 1 mg/kg i.v., 6 doses
[13] = H22, second experiment, 1 mg/kg

Compound: CC(C)C1CC23OC1(O)CC(C)(N1CCNCC1)C2CCC3C (centres unmarked) [Compound 43, Curcumol piperazine without double bond]
- inhibition rate, Results (%) MCF-7 ([1]; Table 1): 43.21%
- inhibition rate, Results (%) MCF-7 ([1]; Table 2 (repeated screening)): 41.94%
- Cytopathy and cell status, Sample (293 cells): Good
- inhibition rate, Results (%) HL-60 ([2]; Table 1): 2.56%
- inhibition rate, Results (%) HL-60 ([2]; Table 2 (repeated screening)): 2.00%
- inhibition rate, Results (%) Bel-7402 ([3]; Table 1): 9.15%
- inhibition rate, Results (%) Bel-7402 ([3]; Table 2 (repeated screening)): −4.98%
- inhibition rate, Results (%) LLC ([4]; Table 1): −2.06%
- inhibition rate, Results (%) LLC ([4]; Table 2 (repeated screening)): −11.23%
- inhibition rate, Results (%) SMMC-7721 ([5]; Table 1): −10.12%
- inhibition rate, Results (%) SMMC-7721 ([5]; Table 2 (repeated screening)): −8.98%
- inhibition rate, Results (%) Hela ([6]; Table 1): 62.13%
- inhibition rate, Results (%) Hela ([6]; Table 2 (repeated screening)): 59.66%
- inhibition rate, Results (%) U-937 ([7]; Table 1): 16.32%
- inhibition rate, Results (%) U-937 ([7]; Table 2 (repeated screening)): 12.30%
- inhibition rate, Results (%) A-549 ([8]; Table 1): 13.39%
- inhibition rate, Results (%) A-549 ([8]; Table 2 (repeated screening)): 11.24%

Compound: CC[C@@]1(O)C(=O)OCc2c1cc1n(c2=O)Cc2cc3cc(O)ccc3nc2-1 [Hydioxycamptothecine]
- Average weight (g)-after administration (mouse lung cancer Lewis; first experiment): 21.0 g
- Inhibition rate (%) (mouse lung cancer Lewis; first experiment): 49.7%
- Tumor weight (mouse lung cancer Lewis; first experiment): 1.50 ± 0.28 g

Compound: hydroxycamptothecine [reference compound]
- Average weight(g)-after administration ([9]; U14, first experiment): 22.2 g
- Inhibition rate (%) ([9]; U14, first experiment): 45.8%
- Tumor weight ([9]; U14, first experiment): 1.90 ± 0.28 g
- Average weight(g)-after administration ([9]; U14, second experiment): 22.3 g
- Inhibition rate (%) ([9]; U14, second experiment): 46.5%
- Tumor weight ([9]; U14, second experiment): 1.82 ± 0.28 g
- Average weight (g)-after administration ([9]; U14, third experiment): 21.3 g
- Inhibition rate (%) ([9]; U14, third experiment): 45.6%
- Tumor weight ([9]; U14, third experiment): 1.96 ± 0.28 g
- Average weight (g)-after administration (mouse lung cancer Lewis; second experiment): 21.0 g
- Inhibition rate (%) (mouse lung cancer Lewis; second experiment): 50.2%
- Tumor weight (mouse lung cancer Lewis; second experiment): 1.20 ± 0.28 g
- Average weight (g)-after administration (mouse lung cancer Lewis; third experiment): 21.5 g
- Inhibition rate (%) (mouse lung cancer Lewis; third experiment): 51.9%
- Tumor weight (mouse lung cancer Lewis; third experiment): 1.30 ± 0.28 g
- Average weight (g)-after administration ([10]; S-180, first experiment): 20.8 g
- Inhibition rate (%) ([10]; S-180, first experiment): 65.2%
- Tumor weight ([10]; S-180, first experiment): 0.87 ± 0.28 g
- Average weight(g)-after administration ([10]; S-180, second experiment): 20.8 g
- Inhibition rate (%) ([10]; S-180, second experiment): 64.6%
- Tumor weight ([10]; S-180, second experiment): 0.92 ± 0.38 g
- Average weight(g)-after administration [11, 12]: 20.5 g
- Inhibition rate (%) [11, 12]: 63.9%
- Tumor weight [11, 12]: 1.12 ± 0.28 g
- Average weight(g)-after administration [11, 13]: 20.2 g
- Inhibition rate (%) [11, 13]: 66.9%
- Tumor weight [11, 13]: 1.00 ± 0.28 g
- Average weight (g)-after administration ([11]; H22, third experiment, 1 mg/kg): 22.2 g
- Inhibition rate (%) ([11]; H22, third experiment, 1 mg/kg): 65.3%
- Tumor weight ([11]; H22, third experiment, 1 mg/kg): 1.05 ± 0.28 g
